Laboratory results taken from patent publication EP2050455B1, “Compounds leading to an increase of the IL-12/IL-10 ratio and their use for therapy of infectious and proliferative diseases” (priority 2007, dated 2009).

Columns and labels:
iMoDC = test: Phenotype modification: CD14 versus HLA-DR expression and phase contrast morphology; format: cell-based, Human; conditions: non-toxic concentrations, 20-48 hours (Example 3)
Description: Human peripheral blood monocytes were prepared by various well-established techniques. • (1) Blood drawing was carried out in the presence of the anticoagulant EDTA, separation of the nucleated cells by combined density/velocity gradient centrifugation, followed by selective adherence in the culture for one hour. The non-attached cells were washed off and the remaining population of highly enriched monocytes was further cultured. • (2) Alternatively, blood cells were recovered by leukapheresis, followed by counterflow elutriation. The highly enriched monocyte fraction was either freeze protected or taken into culture. Cells were cultured in a humidified incubator (37°C, 5% CO2).

MoDC [1] = test: Surface marker expression / maturation of MoDC by flow cytometry; format: cell-based, Human
Description: (§1) The number of living cells was measured by Casy-technology. […] They were analysed for expression of CD14 versus HLA-DR. Morphology was assessed by phase contrast microscopy. […] MoDC were cultured in serum containing media (A) or serum free (B). They were left untreated (black), treated with maturation cocktail as positive control (green), or with 10 nM OspA-LP (red) for 48 hours and analysed by flow cytometry for viability or the expression of CD14, CD1a, CD86/CD80 double positive cells, CD83 and CD197 (CCR7). Data were collected from 4 independent experiments. The results are means ±SD. […] After another 24 hours the cells were analysed for IL-10 production by ELISPOT assay. […] The resulting values are given numbers of spots. […] All LP treated MoDC (red) were compared with untreated MoDC (black). The blue line represents 100 spots per 5x10^4 MoDC. […] They were analysed for IL-10 (left) and IL-12p70 production (right). Shown are 3 independent experiments using cells from different healthy donors. Compared to the untreated controls (black), IL-10 production is not depressed by LPS R60/IFN-γ (red). […] (A) number of cytokine producing cells: IL-10 (black); IL-12p70 (red). (B) ratio of IL-12p70/IL-10 producing cells. […] The resulting cells were analysed for the surface expression of both CD80 and CD86 in dot plot analyses (A), and CD83 histogram overlay (B).
Cytokines GM-CSF (800 IU/ml; Bayer Healthcare Pharmaceutical) plus GMP-certified IL-4 (500 IU/ml; CellGenix, Freiburg, Germany) were added to induce transdifferentiation from monocytes to immature monocyte-derived dendritic cells (iMoDC). After 5-7 days of culture iMoDC were analysed for the surface markers CD1a, CD209 und CD14 using the antibodies listed in the following table. Table
Maturation signals were added, including signals to trigger polarisation. The cells were further cultured for another 2 days.
Alternatively, the maturation phase was split into individual steps: • Step 1: TLR agonists lipopeptides • Step 2: presence of the previous inducers, TLR agonists lipopolysaccharide added in the presence of IFN-γ.

IL-10 production of MoDC = test: IL-10 production by ELISPOT assay (indicator culture); format: cell-based, Human
Description: as §1
(§2) This culture imitates the fate of DC after injecting them into an organism and is designed to test the actual production and release of IL-12 and IL-10 during this phase. This is tested by the well-known ELISPOT-assay. For this phase the previous inducers were either sustained or washed out. Also, further inducers were added. Number of spots as well as the intensity of spots could be read out. Therefore, this setup does more realistically reflect the actual functional state of DC at the time of injection and thereafter.

[2] = test system: IL-12p70 production of MoDC; test: IL-12p70 production by ELISPOT assay (indicator culture); format: cell-based, Human
Description: as §1, §2

MoDC [3] = conditions: Nishiguchi et al. (2001); cited from earlier work
[4] = non-toxic concentrations, 20-48 hours (Example 3)

FSL-1
cell phenotype (iMoDC): modification
Maturation of MoDC (surface expression of CD80, CD86, CD83) (MoDC [1]; FSL-1 LP 1 nM, LPS R60 1 µg/ml / IFN-γ 500 IU/ml, single or sequential (Figure 10)): only incomplete maturation
Costimulatory signals (CD80, CD86) (MoDC [1]; [4]): upregulated
maturation as measured by expression of CD83 (MoDC [1]; [4]): No complete maturation
IL-10-secretion of immature DC (IL-10 production of MoDC; ELISPOT): down-regulation
IL-10 production (IL-10 production of MoDC; OspA-LP 10 nM, FSL-1 1 nM, FSL-2 1 nM, alone or combined with IFN-γ (500 IU/ml), 24 hours, vs untreated (Figure 6)): downregulated
IL-10 secreting cells (IL-10 production of MoDC; non-toxic concentrations, 20-48 hours, dose-dependent, donor-independent (Example 3)): decrease
IL-12p70 production ([2]; OspA-LP 10 nM, FSL-1 1 nM, FSL-2 1 nM, alone or combined with IFN-γ (500 IU/ml), 24 hours (Figure 6)): remains extremely low
production of IL-12 ([2]; immature DC): No effect
IL-12p70 production [2, 4]: only poorly stimulated
Maturation of DC (MoDC [3]): incompletely
